Assays:
[1] = biological target: EGFR WT (Homo sapiens (Human), UniProt P00533); assay: EGFR biochemical assay (AssayQuant chelation-enhanced fluorescence); details: 30 min preincubation, reaction time 360 min
[2] = biological target: EGFR WT in Ba/F3 cells (Homo sapiens (Human), UniProt P00533); assay: Ba/F3 pEGFR assay (AlphaLISA p-EGFR Tyr1068); assay type: cell-based; details: 2 hrs treatment, media supplemented with EGF
Experimental: Cellular activity was determined using the Ba/F3 system for studying oncogenic mutant kinases (Warmuth 2007). […] Transduced cells were maintained in RPMI 1640 with 10% FBS. EGFR WT transduced cells were grown in media supplemented with EGF. To assay cellular activity of inhibitors, cells were treated with inhibitor from 1000X DMSO stock dilutions and incubated for 2 hrs at 37° C. 5% CO2. Subsequently, p-EGFR (Tyr1068) was quantified using a commercial sandwich immunoassay (PerkinElmer AlphaLISA SureFire assay; ALSU-PEGFR) according to the manufacturer's instructions. […] Curr Opin Oncol 19, 55-60 (2007), which is incorporated herein in its entirety.

Sequence of EGFR WT (P00533 668-1210): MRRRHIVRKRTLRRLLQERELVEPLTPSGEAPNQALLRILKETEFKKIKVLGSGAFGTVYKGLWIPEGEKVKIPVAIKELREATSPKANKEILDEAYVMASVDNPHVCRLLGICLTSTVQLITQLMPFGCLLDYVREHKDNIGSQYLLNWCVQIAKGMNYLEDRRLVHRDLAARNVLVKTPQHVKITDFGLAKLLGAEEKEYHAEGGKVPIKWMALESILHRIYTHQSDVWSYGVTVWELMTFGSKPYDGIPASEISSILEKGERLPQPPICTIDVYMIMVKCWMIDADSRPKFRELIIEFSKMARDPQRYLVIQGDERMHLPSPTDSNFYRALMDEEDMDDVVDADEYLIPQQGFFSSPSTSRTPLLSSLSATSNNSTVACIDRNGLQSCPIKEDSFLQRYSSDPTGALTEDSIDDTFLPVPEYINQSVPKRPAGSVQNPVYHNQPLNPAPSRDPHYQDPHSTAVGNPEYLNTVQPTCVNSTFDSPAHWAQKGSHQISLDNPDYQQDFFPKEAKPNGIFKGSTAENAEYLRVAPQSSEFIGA
Sequence of EGFR WT in Ba/F3 cells (P00533 25-1210): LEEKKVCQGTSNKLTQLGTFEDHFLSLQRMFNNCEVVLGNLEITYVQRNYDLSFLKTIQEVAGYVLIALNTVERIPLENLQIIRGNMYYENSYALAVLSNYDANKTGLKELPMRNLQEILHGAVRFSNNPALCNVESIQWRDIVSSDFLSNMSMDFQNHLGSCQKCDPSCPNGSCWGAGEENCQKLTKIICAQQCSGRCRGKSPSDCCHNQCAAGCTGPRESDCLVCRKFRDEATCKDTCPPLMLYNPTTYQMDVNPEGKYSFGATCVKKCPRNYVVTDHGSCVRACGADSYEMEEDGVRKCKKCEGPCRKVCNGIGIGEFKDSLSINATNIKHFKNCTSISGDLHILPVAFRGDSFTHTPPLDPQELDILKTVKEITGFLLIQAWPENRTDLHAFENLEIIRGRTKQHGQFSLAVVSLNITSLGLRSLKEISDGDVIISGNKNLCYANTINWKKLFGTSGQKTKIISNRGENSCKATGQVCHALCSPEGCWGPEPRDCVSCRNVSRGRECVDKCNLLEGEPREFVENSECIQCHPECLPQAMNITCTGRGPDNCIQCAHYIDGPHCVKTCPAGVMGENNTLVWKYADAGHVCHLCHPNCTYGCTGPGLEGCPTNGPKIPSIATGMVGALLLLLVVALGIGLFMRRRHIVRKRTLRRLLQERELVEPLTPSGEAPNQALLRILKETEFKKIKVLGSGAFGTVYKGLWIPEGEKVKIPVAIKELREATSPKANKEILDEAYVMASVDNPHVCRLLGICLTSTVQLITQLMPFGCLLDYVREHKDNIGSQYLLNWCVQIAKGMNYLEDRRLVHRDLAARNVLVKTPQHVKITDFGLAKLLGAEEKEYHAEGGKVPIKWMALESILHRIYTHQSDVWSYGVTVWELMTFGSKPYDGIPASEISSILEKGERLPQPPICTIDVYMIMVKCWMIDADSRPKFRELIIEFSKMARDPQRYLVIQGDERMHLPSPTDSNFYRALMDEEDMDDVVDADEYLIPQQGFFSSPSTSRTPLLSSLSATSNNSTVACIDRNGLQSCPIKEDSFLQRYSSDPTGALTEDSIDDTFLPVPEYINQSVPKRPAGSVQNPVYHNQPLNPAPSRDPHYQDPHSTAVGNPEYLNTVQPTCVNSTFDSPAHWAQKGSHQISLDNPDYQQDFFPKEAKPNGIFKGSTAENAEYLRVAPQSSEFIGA

Row | IC50 [1] [nM] | IC50 [2] [nM] | Compound
1 | 38.2 | > 10000 | CC(C)(O)Cn1/c(=N/C(=O)c2ccnc(C#Cc3cccc(O)c3C=O)c2)[nH]c2ccccc21 [Compound 127]
2 | 129 | 1290 | CN1CCN(Cc2ccc3[nH]/c(=N\C(=O)c4ccnc(C#Cc5cccc(N)c5C=O)c4)n(CC(C)(C)O)c3c2)CC1 [Compound 99]
3 | 80.1 | 5200 | CC(C)(O)Cn1/c(=N/C(=O)c2ccnc(CCc3cccc(O)c3C=O)c2)[nH]c2ccccc21 [Compound 135]
4 | 108 | > 9970 | CN1CCN(Cc2ccc3[nH]/c(=N\C(=O)c4ccnc(-c5cnn(-c6cccc(O)c6C=O)c5)c4)n(CC(C)(C)O)c3c2)CC1 [Compound 88]
5 | 8.81 | > 10000 | CC(C)(O)Cn1/c(=N/C(=O)c2ccnc(C#Cc3cccc(O)c3C=O)c2)[nH]c2ccc(CN3CCOCC3)cc21 [Compound 78]
6 | 348 | > 10000 | Cc1cc(C(=O)/N=c2\[nH]c3ccc(CN4CCN(C)CC4)cc3n2CC(C)(C)O)cc(-n2cc(-c3cccc(O)c3C=O)cn2)n1 [Compound 102]
7 | 8.71 | 2980 | CN1CCN(Cc2ccc3[nH]/c(=N\C(=O)c4cc(Oc5cccc(O)c5C=O)c5sccc5c4)n(CC(C)(C)O)c3c2)CC1 [Compound 107]
8 | 61 | 879 | COC(=O)Nc1cccc(C#Cc2cc(C(=O)/N=c3\[nH]c4ccc(CN5CCN(C)CC5)cc4n3CC(C)(C)O)ccn2)c1C=O [Compound 84]
9 | 52.1 | > 8830 | CN1CCN(Cc2ccc3[nH]/c(=N\C(=O)c4ccnc(-n5cc(-c6cccc(O)c6C=O)cn5)c4)n(CC(C)(C)O)c3c2)CC1 [Compound 85]
10 | 85.4 | 950 | CC(=O)Nc1cccc(C#Cc2cc(C(=O)/N=c3\[nH]c4ccc(CN5CCN(C)CC5)cc4n3CC(C)(C)O)ccn2)c1C=O [Compound 90]
11 | 221 | > 10000 | O=Cc1c(O)cccc1Oc1cc(C(=O)/N=c2\[nH]c3ccccc3n2CCN2CCOCC2)ccn1 [Compound 123]
12 | 444 | > 10000 | CN1CCN(Cc2ccc3[nH]/c(=N\C(=O)c4ccnc(-c5ccn(-c6cccc(O)c6C=O)n5)c4)n(CC(C)(C)O)c3c2)CC1 [Compound 94]
13 | 721 | 5780 | CC(=O)Nc1cccc(-c2cnn(-c3cc(C(=O)/N=c4\[nH]c5ccc(CN6CCN(C)CC6)cc5n4CC(C)(C)O)ccn3)c2)c1C=O [Compound 95]
14 | 42 | 267 | CN1CCN(Cc2ccc3[nH]/c(=N\C(=O)c4ccnc(C#Cc5cccc(NC(=O)C6CC6)c5C=O)c4)n(CC(C)(C)O)c3c2)CC1 [Compound 87]
15 | 5.01 | 1490 | CN1CCN(Cc2ccc3[nH]/c(=N\C(=O)c4ccc(F)c(Oc5cccc(O)c5C=O)c4)n(CC(C)(C)O)c3c2)CC1 [Compound 110]
16 | 74.3 | > 10000 | CN1CCN(Cc2ccc3[nH]/c(=N\C(=O)c4ccnc(C#Cc5cncc(O)c5C=O)c4)n(CC(C)(C)O)c3c2)CC1 [Compound 100]
17 | 49.1 | > 5820 | CN1CCN(Cc2ccc3[nH]/c(=N\C(=O)c4ccnc(C#Cc5cc(F)cc(O)c5C=O)c4)n(CC(C)(C)O)c3c2)CC1 [Compound 89]
18 | 13.5 | 2370 | CC(C)(O)Cn1/c(=N/C(=O)c2ccnc(Oc3cccc(O)c3C=O)c2)[nH]c2ccc(CN3CCOCC3)cc21 [Compound 76]
19 | 10.9 | 4770 | CC(C)(O)Cn1/c(=N/C(=O)c2ccnc(Oc3cccc(O)c3C=O)c2)[nH]c2ccc(CN3CCC(C(C)(C)O)CC3)cc21 [Compound 80]
20 | 115 | 7950 | CC(=O)Nc1cccc(C#Cc2cc(C(=O)/N=c3\[nH]c4ccc(CN5CCN(C)CC5)cc4n3CC(C)(C)O)cc(C)n2)c1C=O [Compound 97]
21 | > 1000 | – | CC(C)(O)Cn1/c(=N/C(=O)c2ccnc(C#Cc3cccc(C=O)c3O)c2)[nH]c2ccccc21 [Compound 137]
22 | 508 | – | CN1CCN(Cc2ccc3[nH]/c(=N\C(=O)c4ccnc(N(C)Cc5cccc(O)c5C=O)c4)n(CC(C)(C)O)c3c2)CC1 [Compound 96]

The next lines start with the compound.

Row | Compound | IC50 [1] [nM] | IC50 [2] [nM]
23 | CN1CCN(Cc2ccc3[nH]/c(=N\C(=O)c4ccnc(C#Cc5cccc(NS(C)(=O)=O)c5C=O)c4)n(CC(C)(C)O)c3c2)CC1 [Compound 69] | 58.2 | > 10000
24 | CN1CCN(Cc2ccc3[nH]/c(=N\C(=O)c4ccnc(C#Cc5ccc(F)c(O)c5C=O)c4)n(CC(C)(C)O)c3c2)CC1 [Compound 72] | 7.8 | > 10000
25 | COc1cc(N2CCC(N3CCN(C)CC3)CC2)ccc1Nc1ncc(Cl)c(Oc2ccccc2-c2cccc(O)c2C=O)n1 [Compound 19] | > 1000 | –
26 | CC(C)Cn1/c(=N/C(=O)c2ccnc(Oc3cccc(O)c3C=O)c2)[nH]c2ccc(CN3CCN(C)CC3)cc21 [Compound 65] | 10.1 | 3550
27 | COc1cc(N(C)CCN(C)C)c(NC(C)=O)cc1Nc1nccc(-c2cn(Cc3ccc(O)c(C=O)c3)c3ccccc23)n1 [Compound 30] | 255 | –
28 | CNc1nc(Nc2ccc(N3CCC(N4CCN(C)CC4)CC3)cc2OC)ncc1-c1ccc(O)c(C=O)c1 [Compound 15] | 19.1 | 9650
29 | CN1CCN(Cc2ccc3[nH]/c(=N\C(=O)c4cccc(Oc5cccc(O)c5C=O)c4)n(CC(C)(C)O)c3c2)CC1 [Compound 52] | 8.42 | 4860
30 | COc1cc(N2CCC(N3CCN(C)CC3)CC2)ccc1Nc1ncc(-c2ccc(O)c(C=O)c2)c(Oc2ccccc2)n1 [Compound 21] | 271 | –
31 | CN1CCN(Cc2ccc3[nH]/c(=N\C(=O)c4ccnc(C#Cc5cccc(O)c5C=O)c4)n(CC(C)(C)O)c3c2)CC1 [Compound 62] | 7.05 | 3360
32 | COc1cc(N2CCC(N3CCN(C)CC3)CC2)ccc1Nc1ncc(C#Cc2cccc(O)c2C=O)c(Nc2ccccc2)n1 [Compound 18] | 9.08 | –
33 | COc1cc(N2CCC(N3CCN(C)CC3)CC2)ccc1Nc1ncc(-c2ccc(NC(C)=O)c(C=O)c2)c(Nc2ccccc2)n1 [Compound 20] | > 1000 | > 10000
34 | COCCN1CCN(Cc2ccc3[nH]/c(=N\C(=O)c4ccnc(Oc5cccc(O)c5C=O)c4)n(CC(C)(C)O)c3c2)CC1 [Compound 75] | 14.6 | 3000
35 | COc1cc(N2CCC(N3CCN(C)CC3)CC2)ccc1Nc1ncc(-c2cccc(C=O)c2)c(Nc2ccccc2)n1 [Compound 14] | 63.4 | > 10000
36 | CC(C)c1ccc(N2CC(CS(C)(=O)=O)C2)c2cnc(Nc3ccnc(Oc4cccc(O)c4C=O)n3)cc12 [Compound 48] | > 1000 | > 10000
37 | COc1cc(N2CCC(N3CCN(C)CC3)CC2)ccc1Nc1ncc(Cl)c(Nc2cccc(-c3cccc(C=O)c3O)c2)n1 [Compound 25] | 87.5 | –
38 | CN1CCN(c2ccc3[nH]/c(=N\C(=O)c4ccnc(Oc5cccc(O)c5C=O)c4)n(CC(C)(C)O)c3c2)CC1 [Compound 56] | 278 | 763
39 | CN1CCN(Cc2ccc3[nH]/c(=N\C(=O)c4cc(C=O)cc(Oc5cccc(O)c5C=O)c4)n(CC(C)(C)O)c3c2)CC1 [Compound 58] | 10.3 | > 10000

Row | Compound | IC50 [1] [nM] | IC50 [2] [nM]
40 | CN1CCN(Cc2ccc3[nH]/c(=N\C(=O)c4ccnc(Oc5cc(F)cc(O)c5C=O)c4)n(CC(C)(C)O)c3c2)CC1 [Compound 66] | 18.6 | 2950
41 | CC(C)c1ccc(N2CC(CS(C)(=O)=O)C2)c2cnc(Nc3ccnc(-c4cccc(C=O)c4O)n3)cc12 [Compound 50] | > 1000 | –
42 | COc1cc(N2CCC(N3CCN(C)CC3)CC2)ccc1Nc1ncc(C#Cc2ccc(O)c(C=O)c2)c(Nc2ccccc2)n1 [Compound 17] | 98.4 | –
43 | COc1cc(N(C)CCN(C)C)ccc1Nc1ncc(Cl)c(-c2cn(Cc3cccc(O)c3C=O)c3ccccc23)n1 [Compound 32] | 526 | –
44 | CC(C)c1ccc(N2CC(CS(C)(=O)=O)C2)c2cnc(Nc3ccnc(N(C)Cc4cccc(O)c4C=O)n3)cc12 [Compound 43] | > 1000 | –
45 | COc1cc(N2CCC(N3CCN(C)CC3)CC2)ccc1Nc1ncc(-c2ccc(O)c(C=O)c2)c(Nc2ccccc2P(C)(C)=O)n1 [Compound 27] | > 1000 | –
46 | COc1cc(N2CCC(N3CCN(C)CC3)CC2)ccc1Nc1ncc(-c2ccc(O)c(C=O)c2)c(-c2ccccc2)n1 [Compound 22] | 211 | –
47 | COc1cc(N(C)CCN(C)C)ccc1Nc1ncc(Cl)c(-c2cn(Cc3cccc(C=O)c3O)c3ccccc23)n1 [Compound 31] | > 1000 | –
48 | COc1cc(N2CCC(N3CCN(C)CC3)CC2)ccc1Nc1ncc(Cl)c(Nc2ccccc2-c2c(OC)ccc(C=O)c2O)n1 [Compound 34] | 278 | –
49 | CC(C)c1ccc(N2CC(CS(C)(=O)=O)C2)c2cnc(Nc3ccnc(C#Cc4cccc(O)c4C=O)n3)cc12 [Compound 41] | 22.2 | –
50 | COc1cc(N2CCC(N3CCN(C)CC3)CC2)ccc1Nc1ncc(C#Cc2cccc(C=O)c2O)c(Nc2ccccc2)n1 [Compound 16] | 36.4 | –
51 | COc1cc(N2CCC(N3CCN(C)CC3)CC2)ccc1Nc1ncc(Cl)c(Nc2ccc(NCc3ccc(C=O)c(O)c3)cc2)n1 [Compound 33] | 76.5 | –
52 | COc1cc(N2CCC(N3CCN(C)CC3)CC2)ccc1Nc1ncc(Cl)c(Nc2cccc(-c3cccc(O)c3C=O)c2)n1 [Compound 26] | 872 | –
53 | CC(C)c1ccc(N2CC(CS(C)(=O)=O)C2)c2cnc(Nc3ccnc(-c4ccc(O)c(C=O)c4)n3)cc12 [Compound 47] | > 1000 | –
54 | CC(C)c1ccc(N2CC(CS(C)(=O)=O)C2)c2cnc(Nc3ccnc(-c4cccc(-c5cccc(O)c5C=O)c4)n3)cc12 [Compound 46] | > 1000 | –
55 | COc1cc(N2CCC(N3CCN(C)CC3)CC2)ccc1Nc1ncc(-c2ccc(C=O)c(O)c2)c(Nc2ccccc2P(C)(C)=O)n1 [Compound 24] | 10.8 | –

— patent US20240409609A1, “REVERSIBLE LYSINE COVALENT MODIFIERS OF EGFR AND USES THEREOF” (Terremoto Biosciences, Inc., priority 2021, published 2024)
